Laboratory results published in patent publication US20160361326A1, “METHOD OF TREATING HYPERGLYCEMIA AND DIABETES AND OF INCREASING ADSORPTION AND EFFICACY OF VITAMIN D” (Board of Supervisors of Louisiana State University and …, priority 2015, published 2016).

Legend:
THP-1 monocytes = experiment: L-cysteine and vitamin D supplementation in control and high-glucose treated THP-1 monocytes; type: cell-based, human
Method: Control cells were treated with mannitol, which is considered an osmolarity control. To investigate the role of glutathione, siRNA specific for glutamate cysteine ligase catalytic unit (the catalytic component of the enzyme) was used to knock down the enzyme and induce glutathione deficiency. Complexes of glutamate cysteine ligase catalytic unit siRNA (Santa Cruz Biotechnology) and lipofectamine (Invitrogen) were allowed to form in culture flasks in serum free media, to which cells suspended in serum free media were added. After 24 hours complete media with serum was added and the cells were then treated as described in the figures.
25-hydroxy vitamin D (calcidiol) blood test is used to determine how much vitamin D is in the body. The blood concentration of calcidiol is considered an standard indicator of vitamin D status. The kit includes polyclonal antibodies that detect total vitamin D binding protein levels. Levels of glutathione and L-cysteine were determined using HPLC. Details of immunoblotting and cell viability are similar to those given in the publication Vitamin D and 1-cysteine levels correlate positively with glutathione and negatively with insulin resistance levels in the blood of type 2 diabetic patients. Eur J Clin Nutr 68: 1148-1153, 2014 by Jain S K, Micinski D, Huning L, Kahlon G, Bass P F, and Levine SN—such described methods incorporated by reference herein. The antibodies for glutamate cysteine ligase catalytic unit (73 KD), vitamin D binding protein (52 KD), and vitamin D receptor (48 KD) were purchased from Abcam (Cambridge, Mass.).

FL83B hepatocytes = experiment: L-cysteine supplementation in FL83B hepatocytes treated with control and high glucose; type: cell-based, mouse
Method: The FL83B hepatocyte cell line was purchased from American Type Culture Collection (ATCC, Manassas, Va., USA). FL83B hepatocytes were cultured and maintained in F-12K complete medium. […] Control cells were treated with mannitol, which is considered an osmolarity control in some experiments. After 24 h, complete media with serum was added and the cells were then treated as described in the figures.
(§1) Levels of glutathione and L-cysteine were determined using HPLC. In cell culture studies, the whole cell suspension was processed for the glutathione assay. Cell viability was determined using the Alamar Blue method (Alamar Biosciences, Sacramento, Calif., USA). Details of immunoblotting are similar to those known in the art. The antibodies for vitamin D binding protein (52 KD), β-Actin (40 KD), glutamate-cysteine ligase catalytic subunit (GCLC) (75 KD), and vitamin D receptor (48 KD) were purchased from Abcam (Cambridge, Mass., USA). The intensity of each immunoblotting band was measured using the histogram tool of Adobe Photoshop CS5.
mRNA extraction and cDNA synthesis were done as described in the previous section. The following primers were used for hepatocytes: vitamin D binding protein (also called GC) (Mm04243540_m1), vitamin D receptor (Mm00437297_m1), GCLC (Mm00802655_m1), and GAPDH (Mm03302249_g1) and were purchased from Invitrogen. Sequence of oligonucleotides of primers used is given in Supporting Information Material. The relative fold change of mRNA was calculated using the relative quantification (ΔΔCT) method and then normalized to % control for representation.

[1] = test system: Zucker diabetic fatty rats; experiment: L-cysteine supplementation in Zucker diabetic fatty rats: plasma levels of VDBP, 25(OH) vitamin D, glutathione, MCP-1, CRP; type: in vivo, rat; conditions: 1 mg/kg BW daily oral gavage, 8 weeks
Excerpt: (§2) The animal protocol was approved by the institutional Animal Welfare Committee (P-15-006). All procedures performed were in accordance with the ethical standards of the institution. Male Zucker diabetic fatty rats at an age of 5 weeks and weighing about 200-220 g were purchased from Charles River (Wilmington, Mass., USA). The animals were allowed to acclimate to the environmental and handling conditions for 2 days. Computer generated randomization was used to divide rats into two groups, after which they were housed and labelled in individual cages. After overnight fasting they were weighed and tested for hyperglycemia by measuring their blood glucose concentration. Blood was collected via tail incision and the blood glucose levels were measured using an Advantage Accu-chek glucometer (Boehringer Mannheim Corp., Indianapolis, Ind., USA). One group of rats was labeled as diabetic controls and gavaged with saline alone. […] A third group included in the study, called the control group, consisted of male Sprague Dawley (SD) rats who were also gavaged daily with saline. […] Blood glucose and body weight were monitored weekly in all rats. Based on any change in their weights the L-cysteine supplementation dose was adjusted accordingly every week to maintain a similar dose per Kg BW over the entire period of the study.
(§3) All Zucker diabetic fatty rats were fed a high calorie Purina 5008 lab chow diet (Charles River, Wilmington, Mass., USA). This diet contained 3.4 IU vitamin D3 per gram diet. Sprague Dawley rats were fed a standard 8640 lab chow diet, which contained 3 IU vitamin D3 per gram diet (Harlan, Indianapolis, Ind., USA); both Zucker diabetic fatty and Sprague Dawley rats were maintained at 22 ±2° C. with 12:12-h light/dark cycles. Food intake of all rats was monitored. The control group contained six rats. There were also six rats each in the placebo and L-cysteine-supplemented diabetic rat groups. At the end of 8 weeks the rats were fasted overnight and euthanized by exposing them to halothane (2-bromo-2-chloro-1,1,1-trifluoroethane). Blood was drawn with a 191/2 gauge needle via cardiac puncture into vacutainer tubes. Aliquots of blood collected from all rats were sent to the clinical laboratory of LSUHSC-Shreveport for blood chemistry profiles, including liver and renal function and red blood cell counts. Plasma was isolated in a 4° C. centrifuge at 3000 rpm for 10 min from blood collected into EDTA tubes. Rat livers were perfused using cold saline. Once extracted, they were labeled appropriately, and stored at −80° C.
Plasma levels of 25(OH) vitamin D, […] were determined using an ELISA kit (Eagle Biosciences, Nashua, N.H., USA). Plasma vitamin D binding protein quantification was carried out using a kit purchased from Alpco (Salem, N.H., USA). The kit includes polyclonal antibodies that detect total vitamin D binding protein levels. The cytokines MCP-1 (R&D Systems Inc., Minneapolis, Minn., USA) and CRP (Alpco) were determined using the sandwich ELISA method and commercially available kits. In the cytokine assay, control samples were analyzed each time to check the variation from plate to plate on different days of analysis. […]
Levels of glutathione and L-cysteine were determined using HPLC. […] Cell viability was determined using the Alamar Blue method (Alamar Biosciences, Sacramento, Calif., USA). […] The intensity of each immunoblotting band was measured using the histogram tool of Adobe Photoshop CS5.

[2] = test system: Zucker diabetic fatty rats; experiment: L-cysteine supplementation in Zucker diabetic fatty rats: liver protein and mRNA expression, glutathione, reactive oxygen species; type: in vivo, rat; conditions: 8 weeks
Excerpt: as §2, §3
About 50 mg of liver tissue was weighed and homogenized in 1 mL TRIzol reagent (Invitrogen, Grand Island, N.Y., USA). The RNA extraction was performed according to the instructions provided. The concentration and quality of the extracted RNA were determined on a NanoDrop spectrophotometer (Thermo Scientific, Pittsburgh, Pa., USA). A High Capacity RNA-To-cDNA kit (Invitrogen) was used to synthesize cDNA. QPCR was performed using a 7900HT Real Time PCR system and software (Applied Biosystems, Grand Island, NY, USA) using the FAM-labeled primer/probe set Rn00561256_m1 for vitamin D binding protein (also called GC), Rn00690616_m1 for vitamin D receptor, Rn01754615 ml for CYP2R1, and Rn01775763_g1 for GAPDH (Invitrogen), respectively. The relative fold change of mRNA was calculated using the relative quantification (ΔΔCT) method.
as §1, with “The intensity of each immunoblotting band was measured using the histogram tool of Adobe Photoshop CS5.” left out

[3] = L-cysteine supplementation in Zucker diabetic fatty rats: body weight, plasma lipids, liver and kidney function tests; type: in vivo, rat
Excerpt: as §2, with “rats.” for “rats. Based on any change in their weights the L-cysteine supplementation dose was adjusted accordingly every week to maintain a similar dose per Kg BW over the entire period of the study.”
as §3, with “There were also six rats each in the placebo and L-cysteine-supplemented diabetic rat groups.” left out

[4] = hepatocytes cultured with high glucose (25 mM)
[5] = vs placebo-supplemented diabetic rats
[6] = 1 mg/kg BW daily oral gavage, vs placebo
[7] = 1 mg/kg BW daily gavage for 8 weeks, mean ± SE, n=6
[8] = control and high glucose (25 mM)

N[C@@H](CS)C(=O)O [L-cysteine]
glutathione levels (THP-1 monocytes): significant upregulation | mRNA levels of vitamin D binding protein (FL83B hepatocytes; [4]): upregulation | mRNA levels of vitamin D receptor (FL83B hepatocytes; [4]): upregulation | protein expression of vitamin D binding protein (FL83B hepatocytes; [4]): upregulation | protein expression of vitamin D receptor (FL83B hepatocytes; [4]): upregulation | decrease in glutathione levels after high glucose treatment (FL83B hepatocytes; hepatocytes, high glucose (25 mM)): prevented | plasma glutathione ([1]; vs placebo): increase | blood levels of 25(OH) vitamin D [1, 5]: significantly higher | blood levels of vitamin D binding protein [1, 5]: significantly higher | CRP ([1]; plasma, vs placebo): decrease | MCP-1 ([1]; plasma, vs placebo): decrease | glutathione levels in liver [2, 6]: significantly higher | mRNA expression of vitamin D 25-hydroxylase (CYP2R1) in liver [2, 6]: significantly higher | mRNA expression of vitamin D binding protein in liver [2, 6]: significantly higher | protein expression of vitamin D 25-hydroxylase (CYP2R1) in liver [2, 6]: significantly higher | protein expression of vitamin D binding protein in liver [2, 6]: significantly higher | reactive oxygen species levels in liver [2, 6]: significantly lower | expression of protein for vitamin D receptor in liver ([2]; 1 mg/kg BW, higher vs placebo, p=0.17): not statistically significant | expression of mRNA for vitamin D receptor in liver ([2]; 1 mg/kg BW, higher vs placebo, p=0.30): not statistically significant | Body weight [3, 7]: 346 ± 6.3 g | Triglycerides [3, 7]: 509 ± 55 mg/dL | side effects of L-cysteine supplementation ([3]; 1 mg/kg BW daily gavage for 8 weeks, vs placebo): no negative side effects | Calcium ([3]; rat, in vivo, 1 mg/kg): 9.9 ± 0.4 mg/dL

C=C1CC[C@H](O)C/C1=C/C=C1\CCC[C@]2(C)[C@@H]([C@H](C)CCCC(C)C)CC[C@@H]12 [vitamin D, cholecalciferol]
vitamin D binding protein expression (VDBP/actin ratio) (THP-1 monocytes; [8]): increase | vitamin D receptor protein expression (VDR/actin ratio) (THP-1 monocytes; [8]): increase
